Tests used:
[1] = in vivo; cited from earlier work
[2] = tested on: injured hind paw; settings: rat, in vivo; cited from earlier work
[3] = Skin permeation with human abdominal cadaver skin and absorption estimates drawn from it; settings: assuming 3.8 fold increase in drug delivery

## CN(C)C(=O)C(CCN1CCC(O)(c2ccc(Cl)cc2)CC1)(c1ccccc1)c1ccccc1 [loperamide, 4-[4-(4-Chlorophenyl)-4-hydroxypiperidin-1-yl]-N,N-dimethyl-2,2-diphenylbutanamide]
[1]
  half-life, rapid phase one: 2.3 h
  half-life, slow phase two: 23 h
[2]
  antinociception: rapid dose-dependent antinociception
[3]
  estimated increased penetration with damaged stratum corneum: 0.057 mg

## CN1CC[C@]23c4c5ccc(O)c4O[C@H]2[C@@H](O)C=C[C@H]3[C@H]1C5 [morphine]
[2]
  systemic effects following topical application: revealed systemic effects

— patent publication US20180318279A1 (priority 2015, published 2018)
